Source: patent US20250304576A1 (Cancer Research Technology Limited, priority 2022, published 2025)
pKi: −log10 of the molar value.

Columns and labels:
Recombinant IKKβ = target: T1, Recombinant IKKβ (Homo sapiens, UniProt O14920); test: DELFIA IKKβ kinase assay (apparent Ki, Cheng-Prusoff); assay type: biochemical
T1 construct: purchased Millipore, Dundee, UK
T1 sequence (O14920 1-756): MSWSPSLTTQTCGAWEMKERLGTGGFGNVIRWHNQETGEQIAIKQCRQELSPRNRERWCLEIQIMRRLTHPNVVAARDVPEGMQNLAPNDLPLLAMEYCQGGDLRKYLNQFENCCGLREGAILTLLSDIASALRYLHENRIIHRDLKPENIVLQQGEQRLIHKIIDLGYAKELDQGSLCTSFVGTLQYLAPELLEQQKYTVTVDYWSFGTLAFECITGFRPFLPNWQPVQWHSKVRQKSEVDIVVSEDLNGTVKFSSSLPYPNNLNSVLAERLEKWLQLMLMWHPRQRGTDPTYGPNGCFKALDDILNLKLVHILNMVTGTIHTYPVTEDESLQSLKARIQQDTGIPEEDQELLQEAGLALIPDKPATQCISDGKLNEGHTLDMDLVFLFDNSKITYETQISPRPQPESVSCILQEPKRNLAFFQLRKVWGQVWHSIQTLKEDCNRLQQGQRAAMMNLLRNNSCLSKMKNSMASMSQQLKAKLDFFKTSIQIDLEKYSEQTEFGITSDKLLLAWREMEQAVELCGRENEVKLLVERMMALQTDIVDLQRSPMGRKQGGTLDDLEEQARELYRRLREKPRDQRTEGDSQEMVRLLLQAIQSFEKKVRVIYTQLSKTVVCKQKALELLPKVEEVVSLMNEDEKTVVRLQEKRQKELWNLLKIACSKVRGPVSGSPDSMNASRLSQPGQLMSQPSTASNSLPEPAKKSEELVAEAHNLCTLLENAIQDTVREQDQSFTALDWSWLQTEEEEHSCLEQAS
Method in brief: (§1)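 Recombinant IKKα or IKKβ (37 nM) with 0.375 μM biotinylated IκB-α (Ser32) peptide and 40 μM ATP in 40 mM Tris-HCl pH 7.5, 20 mM MgCl2, 60 min at 30° C. Phospho-substrate captured on streptavidin and detected by anti-phospho-IκB-α plus europium anti-mouse IgG time-resolved fluorescence; apparent Ki via Cheng-Prusoff.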

Recombinant IKKα = target: T2, Recombinant IKKα (Homo sapiens, UniProt O15111); test: DELFIA IKKα kinase assay (apparent Ki, Cheng-Prusoff); assay type: biochemical
T2 construct: purchased Millipore, Dundee, UK
T2 sequence (O15111 1-745): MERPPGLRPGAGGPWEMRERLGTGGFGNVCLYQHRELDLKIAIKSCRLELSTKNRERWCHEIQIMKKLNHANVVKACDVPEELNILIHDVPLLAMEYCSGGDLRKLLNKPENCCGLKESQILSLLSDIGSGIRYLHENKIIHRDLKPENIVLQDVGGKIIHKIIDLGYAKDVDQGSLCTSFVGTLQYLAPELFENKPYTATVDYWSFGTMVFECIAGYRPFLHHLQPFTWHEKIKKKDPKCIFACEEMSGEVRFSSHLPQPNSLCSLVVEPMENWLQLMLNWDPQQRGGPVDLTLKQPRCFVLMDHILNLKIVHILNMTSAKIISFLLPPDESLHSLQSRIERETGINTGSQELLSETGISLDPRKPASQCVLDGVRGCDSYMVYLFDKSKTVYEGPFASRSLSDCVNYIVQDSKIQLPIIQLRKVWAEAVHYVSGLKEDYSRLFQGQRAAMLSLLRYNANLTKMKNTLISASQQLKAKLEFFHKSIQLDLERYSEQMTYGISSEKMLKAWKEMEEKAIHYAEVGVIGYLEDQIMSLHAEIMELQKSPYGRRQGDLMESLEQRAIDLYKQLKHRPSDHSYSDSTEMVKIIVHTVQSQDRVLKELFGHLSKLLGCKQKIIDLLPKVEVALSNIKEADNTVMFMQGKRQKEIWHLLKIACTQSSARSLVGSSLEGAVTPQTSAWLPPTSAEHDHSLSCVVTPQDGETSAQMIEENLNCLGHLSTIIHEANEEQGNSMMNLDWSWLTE
Method in brief: as §1

[1] = non-italicised figure: DELFIA assay
[2] = DELFIA assay (first line of an example)

pKi (Recombinant IKKβ; [1])	pKi (Recombinant IKKα; [1])	pKi (Recombinant IKKβ; [2])	pKi (Recombinant IKKα; [2])	SMILES
6.26	7.85	–	–	Nc1cccc(-c2cc(-c3ccnc(N)c3)cc3c(N)n[nH]c23)c1 [Example 107, 7-(3-Aminophenyl)-5-(2-aminopyridin-4-yl)-1H-indazol-3-amine]
6.08	8.30	–	–	COC(=O)Nc1cc(-c2cc(C#CC(C)(C)O)c3[nH]nc(N)c3c2)ccn1 [Example 180, Methyl (4-(3-amino-7-(3-hydroxy-3-methylbut-1-yn-1-yl)-1H-indazol-5-yl)pyridin-2-yl)carbamate]
–	–	7.29	9.00	Nc1n[nH]c2c(Cl)cc(-c3ccnc4[nH]c(CCN5CCOCC5)cc34)cc12 [Example 277, 7-Chloro-5-(2-(2-morpholinoethyl)-1H-pyrrolo[2,3-b]pyridin-4-yl)-1H-indazol-3-amine]
–	–	7.36	8.05	CC(C)(O)CCc1cc(-c2ccnc(NC(=O)C3CC3)c2)cc2c(N)n[nH]c12 [Example 292, N-(4-(3-Amino-7-(3-hydroxy-3-methylbutyl)-1H-indazol-5-yl)pyridin-2-yl)cyclopropanecarboxamide]
6.11	7.82	–	–	CC(C)(C)C#Cc1cc(-c2ccnc(NC3COC3)c2)cc2c(N)n[nH]c12 [Example 155, 7-(3,3-Dimethylbut-1-yn-1-yl)-5-(2-(oxetan-3-ylamino)pyridin-4-yl)-1H-indazol-3-amine]
5.90	7.46	–	–	Nc1n[nH]c2c(-c3ccccc3)cc(-c3ccnc4[nH]ccc34)cc12 [Example 7, 7-Phenyl-5-(1H-pyrrolo[2,3-b]pyridin-4-yl)-1H-indazol-3-amine]
7.42	8.10	–	–	CCNc1cc(-c2ccc3[nH]nc(N)c3c2)ccn1 [Example 12, 5-[2-(Ethylamino)pyridin-4-yl]-1H-indazol-3-amine]
6.10	6.74	–	–	Nc1cc(-c2cc(-c3ccccc3CO)c3[nH]nc(N)c3c2)ccn1 [Example 125]
–	–	5.93	7.92	COC(=O)Nc1cc(-c2cc(C#CC(C)(C)C)c3[nH]nc(N)c3c2)ccn1 [Example 190, Methyl (4-(3-amino-7-(3,3-dimethylbut-1-yn-1-yl)-1H-indazol-5-yl)pyridin-2-yl)carbamate]
6.21	7.37	–	–	Nc1cc(-c2cc(-c3ccsc3)c3[nH]nc(N)c3c2)ccn1 [Example 130, 5-(2-Aminopyridin-4-yl)-7-(thiophen-3-yl)-1H-indazol-3-amine]
6.42	7.85	–	–	CC1(C#Cc2cc(-c3ccnc(N)c3)cc3c(N)n[nH]c23)COC1 [Example 141, 5-(2-Aminopyridin-4-yl)-7-((3-methyloxetan-3-yl)ethynyl)-1H-indazol-3-amine]
–	–	6.38	7.59	CC(C)(O)c1cc2c(-c3ccc4[nH]nc(N)c4c3)ccnc2[nH]1 [Example 225, 2-(4-(3-Amino-1H-indazol-5-yl)-1H-pyrrolo[2,3-b]pyridin-2-yl)propan-2-ol]
< 5.00	5.72	–	–	CN(CCCO)c1cc(-c2ccc3[nH]nc(N)c3c2)ccn1 [Example 29, 3-((4-(3-Amino-1H-indazol-5-yl)pyridin-2-yl)(methyl)amino)propan-1-ol]
6.39	7.34	–	–	Nc1cc(-c2cc(-c3ccn[nH]3)c3[nH]nc(N)c3c2)ccn1 [Example 133, 5-(2-Aminopyridin-4-yl)-7-(1H-pyrazol-5-yl)-1H-indazol-3-amine]
–	–	5.42	6.21	COC(=O)Nc1cc(-c2cc(-c3ccc(C(N)=O)cc3)c3[nH]nc(N)c3c2)ccn1 [Example 327, Methyl (4-(3-amino-7-(4-carbamoylphenyl)-1H-indazol-5-yl)pyridin-2-yl)carbamate]

Further lines, the compound ahead of its results:

SMILES	pKi (Recombinant IKKβ; [1])	pKi (Recombinant IKKα; [1])	pKi (Recombinant IKKβ; [2])	pKi (Recombinant IKKα; [2])
CCc1ccccc1NC(=O)Nc1cc(-c2ccc3[nH]nc(N)c3c2)ccn1 [Example 67, 1-(4-(3-Amino-1H-indazol-5-yl)pyridin-2-yl)-3-(2-ethylphenyl)urea]	5.38	6.52	–	–
Nc1n[nH]c2ccc(-c3ccnc(NC(=O)NC4CCCC4)c3)cc12 [Example 39, 1-(4-(3-Amino-1H-indazol-5-yl)pyridin-2-yl)-3-cyclopentylurea]	6.01	6.94	–	–
Nc1n[nH]c2ccc(-c3ccnc(NC(=O)Nc4cccc(OCc5ccccc5)c4)c3)cc12 [Example 57, 1-(4-(3-Amino-1H-indazol-5yl)pyridin-2-yl)-3-(3-(benzyloxy)phenyl)urea]	5.38	7.42	–	–
CCC(O)(CC)c1cc2c(-c3ccc4[nH]nc(N)c4c3)ccnc2[nH]1 [Example 226, 3-(4-(3-Amino-1H-indazol-5-yl)-1H-pyrrolo[2,3-d]pyridin-2-yl)pentan-3-ol]	–	–	6.04	7.02
Nc1ccccc1C#Cc1c(-c2ccc3[nH]nc(N)c3c2)ccnc1N [Example 78, 5-(2-Amino-3-((2-aminophenyl)ethynyl)pyridine-4-yl)-1H-indazol-3-amine]	7.23	7.77	–	–
CCCCN(CC)CCNC(=O)c1cc2c(-c3ccc4[nH]nc(N)c4c3)ccnc2[nH]1 [Example 245, 4-(3-Amino-1H-indazol-5-yl)-N-(2-(butyl(ethyl)amino)ethyl)-1H-pyrrolo[2,3-b]pyridine-2-carboxamide]	–	–	6.71	7.54
Nc1n[nH]c2ccc(-c3ccnc(NC(=O)Nc4ccc(Cl)cc4)c3)cc12 [Example 63]	5.76	7.32	–	–
Nc1n[nH]c2ccc(-c3ccnc(NC(=O)Nc4cccc(CO)c4)c3)cc12 [Example 54, 1-(4-(3-Amino-1H-indazol-5-yl)pyridin-2-yl)-3-(3-(hydroxymethyl)phenyl)urea]	6.38	7.85	–	–
COC(=O)c1cccc(C#Cc2c(-c3ccc4[nH]nc(N)c4c3)ccnc2N)c1 [Example 79, Methyl 3-((2-amino-4-(3-amino-1H-indazol-5-yl)149yridine-3-yl)ethynyl)benzoate]	6.89	7.77	–	–
CN(C)CCNC(=O)c1cc2c(-c3ccc4[nH]nc(N)c4c3)ccnc2[nH]1 [Example 242, 4-(3-Amino-1H-indazol-5-yl)-N-(2-(dimethylamino)ethyl)-1H-pyrrolo[2,3-b]pyridine-2-carboxamide]	–	–	6.42	8.10
CC(C)CCNC(=O)c1cc2c(-c3ccc4[nH]nc(N)c4c3)ccnc2[nH]1 [Example 237, 4-(3-amino-1H-indazol-5-yl)-N-isopentyl-1H-pyrrolo[2,3-b]pyridine-2-carboxamide]	–	–	6.89	8.52
CC(C)OCCCNc1cc(-c2ccc3[nH]nc(N)c3c2)ccn1 [Example 27, 5-(2-((3-Isopropoxypropyl)amino)pyridin-4-yl)-1H-indazol-3-amine]	5.60	7.12	–	–
Nc1n[nH]c2ccc(-c3ccnc(NC(=O)CC4CCCCC4)c3)cc12 [Example 335, N-(4-(3-Amino-1H-indazol-5-yl)pyridin-2-yl)-2-cyclohexylacetamide]	–	–	5.38	6.47
CC(C)c1cccc(NC(=O)Nc2cc(-c3ccc4[nH]nc(N)c4c3)ccn2)c1 [Example 53]	6.38	7.85	–	–
CC(C)(C)C#Cc1cc(-c2ccnc(NC(=O)CC3CC3)c2)cc2c(N)n[nH]c12 [Example 170, N-(4-(3-Amino-7-(3,3-dimethylbut-1-yn-1-yl)-1H-indazol-5-yl)pyridin-2-yl)-2-cyclopropylacetamide]	5.81	7.59	–	–
CC(C)(O)CCC#Cc1c(-c2ccc3[nH]nc(N)c3c2)ccnc1N [Example 86, 6-(2-Amino-4-(3-amino-1H-indazol-5-yl)pyridine-3-yl)-2-methylhex-5-yn-2-ol]	6.41	7.55	–	–
